Laboratory results from patent publication EP4702986A1, “POLYPEPTIDE AND USE THEREOF” (Biocells (Beijing) Biotech Co., Ltd., priority 2023, dated 2024).
“Also recorded” adds a separate entry of the source. Numbered stars: 1 amine (or outer) side, 2 acyl side, 3 side chain; on linkers, the order of the positions; unused ones are H or OH. Square brackets hold non-standard residues; d marks the D form. Side chains are listed from the residue outwards. Peptide text beside a SMILES is read from it. * marks the point of attachment. ξ: configuration not given here. γGlu = O=C(O)[C@H](CCC(=O)[*:2])N[*:1]; Feruloyl = COc1cc(/C=C/C(=O)*)ccc1O; ξ2Nal = NC(Cc1ccc2ccccc2c1)C(=O)O; Fumaroyl = O=C(O)/C=C/C(=O)*; Lauroyl = CCCCCCCCCCCC(=O)*; AEEA = NCCOCCOCC(=O)O

Assays:
human ETB receptor = molecular target: T1, human ETB receptor (Homo sapiens, UniProt P24530); assay: Determination of EC50 of polypeptides against human ETB receptor (IP-One Gq kit); type: cell-based; details: 293T-17 cells transfected with PCDNA3.1-hETB; read-out: hETBR agonist activity EC50/nM
T1 construct: expressed in transfected cells; host or cells: 293T-17 cells, transient transfection
T1 sequence (P24530 27-442): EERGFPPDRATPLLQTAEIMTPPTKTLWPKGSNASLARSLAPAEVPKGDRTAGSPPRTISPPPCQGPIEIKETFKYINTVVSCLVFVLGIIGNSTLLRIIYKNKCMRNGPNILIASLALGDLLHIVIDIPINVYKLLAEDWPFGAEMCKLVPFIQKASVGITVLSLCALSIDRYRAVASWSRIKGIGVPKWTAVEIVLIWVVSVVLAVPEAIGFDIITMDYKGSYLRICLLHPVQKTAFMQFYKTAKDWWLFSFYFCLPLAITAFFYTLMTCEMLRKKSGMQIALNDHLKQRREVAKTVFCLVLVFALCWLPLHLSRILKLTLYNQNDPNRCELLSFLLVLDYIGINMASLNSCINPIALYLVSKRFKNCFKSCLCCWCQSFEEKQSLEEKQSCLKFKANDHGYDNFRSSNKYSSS
Procedure: 293T-17 cells were seeded at a density of 650,000 cells per well in a 6-well plate and cultured overnight in an incubator at 37°C and 5% CO2. Afterward, the cells were transfected with an expression vector, PCDNA3.1-hETB which contained a human ETB receptor gene, at a plasmid concentration of 2.5 µg per well. The cells were further cultured for 48 hours, and green fluorescence expression was observed under a fluorescence microscope. The cells were then digested with trypsin and counted. The activity of compounds on the human ETB receptor was determined with the IP-One Gq kit from Cisbio Bioassays. The cells were suspended in Stim Buffer provided in the kit and the cell suspension was added to a 96-well detection plate at 7 µL cell suspension (containing 30,000 cells) per well. The polypeptides to be tested (prepared according to the Preparation Example of the invention) were diluted in Stim B to obtain a gradient of 11 concentration points. For each concentration point, the polypeptides to be tested were dissolved in Stim B to be at a concentration of 2×, and added at 7 µL to the test cells, while 7 µL of PBS solution was added to the cells in the negative control wells. The plate was sealed and incubated at 37°C for 1 hour in a cell culture incubator. Detection wells, positive control wells containing human endothelin ET1 (ET1: […] (C1-C15,C3-C11)), and PBS control wells were each added with 3 µL of IP1 d2 working solution and 3 µL of IP1 Tb cryptotate Antibody working solution. The plate was then sealed and incubated in the dark at room temperature (25°C±5°C) for 1 hour. The plate seal was removed, and the […] at 665 nm and 620 nm was measured with an ID5 microplate reader. The ratio of the acceptor emission signal to the donor emission signal, i.e., (signal at 665 nm/signal at 620 nm)×10^4, was calculated for each well. With F representing the average value of values of signal at 665 nm/signal at 620 nm for the test samples at various concentrations, a scatterplot was plotted, where the abscissa represented the F value, and the ordinate represented the logarithmic value of the peptide concentration. A curve was fitted with an appropriate method to calculate EC50 values of the polypeptides against the human ETB receptor. Another method was provided for fitting a curve where activation rate of the test polypeptides at each concentration relative to the positive control sample human endothelin ET1 was calculated first with the method in Example 1, and a scatterplot was plotted, where the abscissa represented the activation rate, and the ordinate represented the logarithmic value of the polypeptide concentration. A curve was fitted with an appropriate method to calculate the EC50 values of the polypeptides against the human ETB receptor.

[1] = Determination of half-lives of polypeptides (plasma, LC-MS); details: C57 BL/6, mouse, plasma, iv
mouse model of tMCAO = assay: Garcia JH scoring in mouse model of tMCAO; type: in vivo, C57/6J mice
Procedure: Fifty-one male C57/6J mice, aged 10-12 weeks, weighing 25-30g, were housed for at least 2 days prior to the experiment to adapt to the environment (SPF Biotech). A mouse model of tMCAO was established. The mice were anesthetized with isoflurane. Their body temperature was controlled by a thermostatic blanket and monitored and maintained at 37±0.5°C. A middle incision was made in the skin on the mouse skull, the skin was pulled outward, and a bendable microneedle tip was fixed to the surface of the left parietal bone of the mouse skull. A middle incision on the neck was made to separate the right common carotid artery (CCA), external carotid artery (ECA) and internal carotid artery (ICA). According to the method of Longa (Longa et al., 1989), a silicone rubber-coated suture (RWD Life Science, suture end diameter: 0.22 mm-0.23 mm, MSMC23B120PK50) was introduced through an external carotid artery incision surgery and was slowly advanced through the internal carotid artery towards the origin of the middle cerebral artery. To ensure a sustained and successful occlusion of the middle cerebral artery, we monitored local cerebral blood flow of all stroke animals with a laser speckle flowmeter (generally, the blood flow can be reduced by 40-60% after stabilized). The suture was removed 45 min after the insertion for modeling, and the incision was sutured. Afterward, 1 mL of 37°C warm saline was injected subcutaneously, and the mice were placed on a heating pad until recovery. To alleviate pain, the mice were injected subcutaneously with Tilidine after awakening from anesthesia.
Successfully modeled C57 tMCAO mice were randomly assigned into three groups: a normal saline group, a 30µg/Kg BX229-Na administration group, and a 100µg/Kg BX229-Na administration group. Each group was administered once subcutaneously in the neck 4.5 hours after occlusion (D1), and was administered once more at the same sites and at the same time points on D3 and D6. A sham group included 6 animals. 2 mL/kg was administrated subcutaneously in the neck. Garcia JH scoring was made on D7 and D14 after administration. After the completion of the scoring on D14, the mice were euthanized and harvested for infarcted brain tissues, to extract total proteins. Changes in protein markers VEGF-A and BDNF in each experimental group were detected by ELISA. Table 19: Experimental Grouping and Dosing Regimen

SD rats = details: rat, in vivo
Procedure: Male SD rats were anesthetized with isoflurane, and their neck hairs were shaved. A midline incision was made on the neck to expose the trachea. A ventilator and anesthesia machine for small animals were turned on, with concentration of an anesthetic gas set to 1.2, and its exit channel connected to an inlet of the ventilator. Tidal volume of the ventilator was set to 2 mL, the respiratory rate was 90 breaths/minute, and the respiratory ratio was 1:2. An outlet end of the ventilator was connected to a plastic hose, which was inserted into the rat's airway.
A machine and a software of a biological signal data acquisition and analysis system were turned on. One end of a data acquisition plate was connected to the plastic hose, and the other end was connected to a collector valve connected with a 1-mL syringe. The syringe was filled with heparinized saline, which was injected into the data acquisition plate to expel the air in the entire space until the heparinized saline flowed out from the other end of the plastic hose. The right common carotid arteries of the rats were isolated. A dead knot was made at the distal end and a slipknot at the proximal end of a right common carotid artery. A 1/2-sized incision was made in the artery between the knot with a microscissor, and the plastic hose with heparinized saline was inserted into the incision and fixed to prevent back-and-forth movement. The initial value of the blood pressure was set to zero with the zero-adjustment valve of the biological signal data acquisition and analysis system. The slipknot at the proximal end of the common carotid artery was untied, and real-time blood pressure data of the animal appeared on the software. […] The dosages of IRL1620, BX34, and BX229 were 5 µg/Kg, 42 µg/kg, and 6.6 µg/Kg, respectively.

in vivo = details: male, SD, rat, in vivo, iv
Procedure: (§1) In an experiment about acute toxicity of intravenous administration, male SD rats weighing 200-230 g were dosed in a range between 480 µg/Kg and 30 µg/Kg via tail vein injection in a descending order of dosage. […] Toxic response and mortality of the rats were preliminarily observed, and time of death and doses without mortality of the rats were recorded. The level of acute toxicity of the polypeptides was preliminarily determined based on the doses without mortality.

male SD rats [2] = assay: in vivo; details: one animal per row, observed 24 hours
Procedure: as §1

male SD rats [3] = details: male SD rats, subcutaneous, observed for 48 hours
Procedure: In an experiment about acute toxicity of subcutaneous administration, male SD rats weighing 200-230 g were dosed in a range between 60 µg/Kg and 960 µg/Kg. Observation was made for 48 hours after subcutaneous administration. Toxic response and mortality of the rats were preliminarily observed, and time of death and doses without mortality were recorded. The level of acute toxicity of the polypeptides was preliminarily determined based on the doses without mortality.

[4] = 30µg/Kg subcutaneously on D1, D3, D6
[5] = tMCAO mice, 30µg/Kg s.c. on D1, D3, D6

Row | SMILES | EC50 (human ETB receptor) [nM] | half-life [1] [h] | Garcia JH-15 score on D7 compared with the normal saline group (mouse model of tMCAO; [4]) | Garcia JH-15 score on D14 compared with the normal saline group (mouse model of tMCAO; [4]) | Garcia JH-15 score on D7 compared with the normal saline group (mouse model of tMCAO; 100µg/Kg subcutaneously on D1, D3, D6) | Garcia JH-15 score on D7 compared with the normal saline group (mouse model of tMCAO; [5]) | Garcia JH-15 score on D14 compared with the normal saline group (mouse model of tMCAO; [5]) | Garcia JH-15 score on D7 compared with the normal saline group (mouse model of tMCAO; tMCAO mice, 100µg/Kg s.c. on D1, D3, D6) | Garcia JH-15 score on D14 compared with the normal saline group (mouse model of tMCAO; tMCAO mice, 100µg/Kg s.c. on D1, D3, D6, P < 0.05) | total score of the Garcia JH-15 score, higher than in the normal saline group by (mouse model of tMCAO; tMCAO mice, D7, 100µg/Kg s.c. on D1, D3, D6) [point] | maximum extent of decrease in blood pressure, of the baseline blood pressure (SD rats) | time to the lowest blood pressure (SD rats) [min] | Maximum percentage of blood pressure reduction relative to baseline blood pressure (n = 3) (SD rats; iv) | Time from baseline blood pressure to the lowest blood pressure (SD rats; iv) [min] | MTD at 24 h (in vivo) [mg/kg] | Observations of Animal Status (male SD rats [2]; intravenous (tail vein) 60 µg/Kg) | Observations of Animal Status (male SD rats [2]; intravenous (tail vein) 90 µg/Kg) | Observations of Animal Status (male SD rats [2]; intravenous (tail vein) 120 µg/Kg) | acute toxicity of subcutaneous administration compared with IRL1620 (male SD rats [3])
1 | CC[C@H](C)[C@H](NC(=O)[C@H](CC(=O)O)NC(=O)[C@H](CCCCN)NC(=O)[C@H](Cc1c[nH]cn1)NC(=O)[C@H](C)NC(=O)[C@H](Cc1ccccc1)NC(=O)[C@H](Cc1ccc(O)cc1)NC(=O)[C@@H](NC(=O)[C@H](C)NC(=O)[C@H](CCC(=O)O)NC(=O)[C@H](CCC(=O)O)NC(=O)[C@H](CC(=O)O)NC(=O)/C=C/C(=O)O)C(C)C)C(=O)N[C@H](C(=O)NC(Cc1ccc2ccccc2c1)C(=O)O)[C@@H](C)CC (some centres unmarked) [BX-13-2] (Fumaroyl-DEEAVYFAHKDII[ξ2Nal]-OH; C-terminus assumed) | 11.8 | – | – | – | – | – | – | – | – | – | – | – | – | – | – | – | – | – | –
2 | CC[C@H](C)[C@H](NC(=O)[C@H](CC(=O)O)NC(=O)[C@H](CCCCN)NC(=O)[C@H](Cc1c[nH]cn1)NC(=O)[C@H](C)NC(=O)[C@H](Cc1ccccc1)NC(=O)[C@H](Cc1ccc(O)cc1)NC(=O)[C@@H](NC(=O)[C@H](C)NC(=O)[C@H](CCC(=O)O)NC(=O)[C@H](CCC(=O)O)NC(=O)[C@H](CC(=O)O)NC(=O)/C=C/c1ccc(O)c(OC)c1)C(C)C)C(=O)N[C@H](C(=O)N[C@@H](Cc1c[nH]c2ccccc12)C(=O)O)[C@@H](C)CC [BX-15] (Feruloyl-DEEAVYFAHKDIIW-OH; C-terminus assumed) | 41.1 | – | – | – | – | – | – | – | – | – | – | – | – | – | – | – | – | – | –
3 | CCCCCCCCCCCC(=O)N[C@@H](CCC(=O)NCCOCCOCC(=O)NCCCC[C@H](NC(=O)[C@H](Cc1c[nH]cn1)NC(=O)[C@H](C)NC(=O)[C@H](Cc1ccccc1)NC(=O)[C@H](Cc1ccc(O)cc1)NC(=O)[C@@H](NC(=O)[C@H](C)NC(=O)[C@H](CCC(=O)O)NC(=O)[C@H](CCC(=O)O)NC(=O)[C@H](CC(=O)O)NC(=O)/C=C/C(=O)O)C(C)C)C(=O)N[C@@H](CC(=O)O)C(=O)N[C@H](C(=O)N[C@H](C(=O)N[C@@H](Cc1c[nH]c2ccccc12)C(=O)O)[C@@H](C)CC)C(C)C)C(=O)O [BX-229] (Fumaroyl-DEEAVYFAHK([AEEA-γGlu-Lauroyl])DVIW-OH) | – | 1.28 | better scores than the normal saline group | better scores than that of the normal saline group | better scores than the normal saline group | better scores | better scores | better scores | significantly different | 1 | 17.0%±2.0% | 20 to 35 | 17.0%±2.0% | 20 to 30 | 0.06 | No obvious reaction within 1 hour; developed rapid breathing at 1 hour; recovered to normal after 10 minutes | Died at 1 hour after administration; also recorded: Developed rapid breathing at 25 minutes after administration; recovered after 25 minutes; showed no willingness to move; also recorded: Developed rapid breathing and the body turned purple at 1 hour after administration; partially recovered after 30 minutes; also recorded: Developed rapid breathing and diarrhea at 45 minutes after administration; recovered after 25 minutes; also recorded: Developed rapid breathing at 44 minutes after administration; died of convulsions at 52 minutes after administration; also recorded: Developed rapid breathing at 43 minutes after administration; recovered after 30 minutes | Died at 26 minutes after administration; had white discharge in the nasal cavity and developed diarrhea | much lower
